From patent EP0060099A1, “Antiviral agents, their preparation and use” (BEECHAM GROUP PLC, priority 1981, dated 1982)
≈ marks a conversion by molar mass, not a printed value.

What was measured:
[1] = Toxicity to the cell monolayer in the plaque reduction test (MTD); format: cell-based, African Green Monkey; conditions: monkey, vero cells; minimum concentration which killed the cell monolayer; virus infected Vero cultures, 37°C for 6 days
Method: (§1) Vero (African Green Monkey Kidney) cells were grown to confluence in 6 well multidishes, each well being 3.5 cm in diameter'. The cells were incubated with Herpes simplex type 1 virus (HFEM strain) and overlaid with 0.5 mL of 0.9% agarose (w/v) in maintenance medium containing the test compound at a range of concentrations from […] in half-log dilution steps. The virus infected cultures were then incubated at 37°C for 6 days before fixing in 4% formaldehyde solution and staining with carbolfuchsin. The dishes were then examined to find that concentration of test compound causing a 50% reduction in the number of virus plaques formed (PDD50 value) and the minimum concentration of test compound which killed the cell monolayer, leaving a clear zone devoid of cells and virus plaques (MTD).

[2] = system: Herpes simplex type 1 virus (HFEM strain); assay: Plaque reduction test in Vero cells infected with Herpes simplex type 1 virus; format: cell-based; conditions: Human alphaherpesvirus 1, 144 h, concentration causing a 50% reduction in the number of virus plaques formed, agarose overlay, 37°C for 6 days, read-out: PDD50 (the source's name)
Method: as §1

Row | IC50 [2] [µg/mL] | SMILES | MCC at 144 h [1] [µg/mL]
1 | 2.8 (≈ 8.89 µM) | O=c1nc2n(cc1/C=C/Br)[C@H]1C[C@H](O)[C@@H](CO2)O1 [1 (b), 2,5'-Anhydro-E-5-(2-bromovinyl)-2'-deoxyuridine] | > 50
2 | 13.5 (≈ 37.8 µM) | CC(=O)OC1CC2OC1COc1nc(=O)c(C=CBr)cn12 (stereo not shown) [2 (b), 3'-0-Acetyl-2,5'-anhydro-E-5-(2-bromovinyl)-2'-deoxyuridine] | > 100
